The subject of series [1] is Smad1. In words: Western blot of pSmad1 and tSmad1 in THP-1 cells. Format: cell-based, human. To be noted: THP-1 cells treated with RSPO2 siRNA plus inhibitor. As to the method: Cultured cells were rinsed with cold PBS and lysed in Triton lysis buffer ([…] Tris-Cl, pH 7.5, 1% Triton X-100, 150 mM NaCl, 1 mM EDTA, 1 mM EGTA, 1 mM β-glycerophosphate, 1 mM Na3 VO4) or RIPA buffer with complete Protease Inhibitor Cocktail (Roche 11697498001). Lysates were mixed with Laemmli buffer with β-mercaptoethanol and boiled at 95° C. for 5 min to prepare SDS-PAGE samples. Western blot images were acquired with SuperSignal West pico ECL (ThermoFisher 34580) or Clarity Western ECL (Biorad 1705061) using LAS-3000 system (FujiFilm). Quantification of blots was done using ImageJ software.
(§1) THP-1 cells were treated with 0.3, 1.0 and 3.0 μg ml^−1 goat polyclonal anti-RSPO2 antibodies (R&D systems AF3266) or goat polyclonal GFP antibodies (ABIN 100085). After 48 hours, medium was replaced including fresh antibodies—and incubated another 24 hours. Western blot analysis and FACS analyses were performed as discussed above.
(A western blot detects proteins with antibodies after separation by electrophoresis.)

Series [2] deals with THP-1 cells. Nature of the series: Monocyte-macrophage differentiation of THP-1 cells (FACS / qRT-PCR of CD14, CD11B). Format: cell-based, human. How it is done:
Cultured cells were lysed in Macherey-Nagel RAI buffer containing 1% β-mercaptoethanol and total RNAs were isolated using NucleoSpin RNA isolation kit (Macherey-Nagel 740955). Reverse transcription and PCR amplification were performed. Primers used in this study are listed in Supplementary Table 1. Graphs show relative gene expressions to GAPDH. […] Statistical analyses were performed using PRISM7 software with unpaired t-test or one-way ANOVA test.
For analyzing macrophage differentiation of THP-1, cells were harvested, pelleted and resuspended in ice-cold blocking buffer (PBS supplemented with 1% BSA and 0.1% NaN3). Cells were treated with Fc Receptor Binding Inhibitor as recommended by the manufacturer (eBioscience 14916173) and stained directly with FITC/APC-conjugated antibodies diluted in blocking buffer or with non-conjugated primary antibodies followed by fluorochrome-labeled secondary antibodies. Isotype-matched antibodies were used as controls. Dead cells were excluded by counterstaining with propidium iodide. For analyzing apoptosis of THP-1, cells were fixed in 4% PFA, permeabilized by MeOH and blocked with PBS supplemented with 1% BSA and 0.1% Tween-20. Cells were stained with anti-active Caspase-3 antibody and fluorochrome-labeled secondary antibody. FACS Samples were analyzed with FACSCalibur or FACSCanto (BD Biosciences). 10,000 events per samples were acquired, and results were processed with Cell Quest or FACSDiva software (BD Biosciences). For BMP4 stimulation, cells were treated with 5 and 25 ng ml^−1 recombinant human BMP4 protein (R&D systems 314-BP). 100, 300 and 1000 nM LDN […] (Tocris 6053) were used for rescue assay. For the THP-1 cell number quantification and differentiation validation in vivo, bone marrow cells were harvested from tibias of NSG mice and red blood cells were removed by ACK Lysing Buffer (Gibco A1049201). Cells were stained and analyzed as above. Here, 50,000 PI-negative events per samples were acquired.
as §1
(§2) The sequences of shRSPO2 and shControl (Table 1) were synthesized, inserted into the transfer plasmid Tet-pLKO-puro (Addgene 21915) and validated by sequencing. Lentivirus was produced with the 3rd generation lentiviral system according to the protocol available at the Trono lab as described (www.epfl.ch/labs/tronolab/). THP-1 cells were infected with lentivirus with 8 μg ml^−1 Polybrene (Sigma TR-1003) and selected with 0.5 μg ml^−1 puromycin (Calbiochem 540411). Single cell clones were obtained by limiting dilutions. The shRNA expression of clones was validated by monitoring RSPO2 expression after doxycycline treatment (1.0 μg ml^−1) for 3 days.
For orientation: Real-time PCR tracks product formation cycle by cycle.

Series [3] deals with BMP4 signaling. Nature of the series: BRE reporter assay in HEPG2 cells stimulated by BMP4. It counts as cell-based, human. To be noted: HEPG2 cells. As to the method: BRE luciferase assays were executed using 300,000 ml^−1 of HEPG2 cells in 24-well plates. PGL3-BRE-Luciferase (500 ng ml^−1) and pRL-TK-Renilla plasmids (50 ng ml^−1) were transfected using Lipofectamine 3000. After 24 hours, cells were serum starved 2 hours and stimulated 14-16 hours with 80 ng ml^−1 recombinant human BMP4 protein (R&D systems 314-BP) along with AP tagged RSPO1-4 or flag tagged RSPO1-3 conditioned medium. Luciferase activity was measured with the Dual luciferase reporter assay system (Promega E1960). Firefly luminescence (BRE) was normalized to Renilla. TOPFlash luciferase assays were carried out as previously described (Berger et al. (2017), EMBO Rep 18, 712-725, doi: 10.15252/embr.201643585). […] Statistical analyses were made with the PRISM7 software using unpaired t-test or one-way ANOVA test. Not significant (ns) P>0.05, *P<0.05, **P<0.01, ***P<0.001, and ****P<0.0001.
A general note: A reporter such as luciferase makes a cellular process visible.

Series [4] concerns Xenopus embryos. In words: Crispr-Cas9-mediated Xenopus rspo2 knockout embryos. It counts as in vivo, Xenopus tropicalis.
Series [5] deals with THP-1 cells. In words: THP-1 AML xenograft in NSG mice. Format: in vivo, mouse. As to the method:
For analyzing macrophage differentiation of THP-1, cells were harvested, pelleted and resuspended in ice-cold blocking buffer (PBS supplemented with 1% BSA and 0.1% NaN3). […] Isotype-matched antibodies were used as controls. Dead cells were excluded by counterstaining with propidium iodide. For analyzing apoptosis of THP-1, cells were fixed in 4% PFA, permeabilized by MeOH and blocked with PBS supplemented with 1% BSA and 0.1% Tween-20. […] FACS Samples were analyzed with FACSCalibur or FACSCanto (BD Biosciences). 10,000 events per samples were acquired, and results were processed with Cell Quest or FACSDiva software (BD Biosciences). […] For the THP-1 cell number quantification and differentiation validation in vivo, bone marrow cells were harvested from tibias of NSG mice and red blood cells were removed by ACK Lysing Buffer (Gibco A1049201). Cells were stained and analyzed as above. Here, 50,000 PI-negative events per samples were acquired.
NOD SCID gamma (NSG) mice were recruited from the Center for Preclinical Research, DKFZ, Heidelberg. […] Randomized mouse cohorts (n=6-7 mice/group) were treated with Dox or vehicle throughout the study. Treatment started 3 days prior to cell transplantation via drinking water consisting 1 mg/ml Dox and 5% saccharose, or 5% saccharose only. […] 500,000 cells in 100 μl PBS were injected intravenously into the lateral tail vein of 7-8-week-old female mice. Besides regular health checks, mouse body weight was taken twice per week throughout the experiment. Heparinized blood was collected from the tail vein at days 9 and 22 after transplantation. Terminal blood collection was performed under isoflurane anesthesia followed by cervical dislocation. Necropsies were taken as indicated or when mice reached a stop criterion of the German Society of Laboratory Animal Sciences (GV-SOLAS), until here defined as survival. All mouse experiments were in accordance with the approved guidelines of the local Governmental Committee for Animal Experimentation (RP Karlsruhe, Germany, license G140/19).
For each reaction, 25 ng genomic DNA was used. A standard curve was generated with genomic DNA extracted from NSG mice blood containing known numbers of THP-1 cells and used for converting qPCR fluorescent signals to actual cell numbers. Normal NSG mice blood and nuclease free water were used as negative controls.

The test system of series [6] is THP-1 cells. In words: THP-1 cell growth and colony formation assay. It counts as cell-based, human. To be noted: TetOn-shRSPO2 clones, Dox treatment. As to the method: as §2
1,000 cells per well of Dox-inducible THP-1 clones were seeded into 24-well plates in RPMI+10% FBS, 1% penicillin-streptomycin, 1 mM sodium pyruvate, 2 mM L-glutamine and 0.5% methylcellulose, with or without Doxycycline (1 μg ml^−1). After 8 days incubation, microscopic dark field images were taken using LEICA DMIL microscope/Canon DS126311 camera.

The target in series [7] is T1, ALK3RD (Homo sapiens, UniProt P36894, Q233D).
T1 construct: expressed in transfected cells; host or cells: HEPG2
In words: BRE reporter assay in HEPG2 cells with constitutively active ALK3. It counts as cell-based. To be noted: RSPO treatment. The text has this:
Alkaline phosphatase (AP) fusions with RSPOs (human RSPO1^ΔC-AP-pCDNA3, RSPO2^ΔC-AP-pCDNA3, RSPO2^ΔC-AP-pCS2+, RSPO3^ΔC-AP-pCDNA3, murine RSPO4^ΔC-pCDNA3) were generated by replacing the C-terminal domain (ΔC) by AP and used to produce conditioned media. Human RSPO2 wild-type (RSPO2), Furin1 and Furin2 deletion mutants (RSPO2^ΔFU), and TSP1 domain deletion mutant (RSPO2^ΔTSP) are ORFs lacking the C-terminal domain, C-terminally tagged with a Flag-tag and subcloned into pCS2+. R1-TSP^R2, R1-TSP^R2-AP and R1-TSP^R2-Flag plasmids were generated by fusion PCR and cloned in pCS2+. Conditioned media from all RSPO constructs were adjusted to equal concentration by western blot and AP activity measurement, and further validated by WNT reporter assay using HEK293T cells. The extracellular domain of ALK3 (ALK3^ECD) was subcloned in AP-pCS2+ for generating conditioned medium and used in in vitro binding assays. Constitutively active forms of ALK2,3,6 (ALK^QD) were generated by Gln-Asp mutations as described in Fujii et al. (1999), Mol Biol Cell 10, 3801-3813, doi: 10.1091/mbc.10.11.3801. HA-tagged ALK3 was a gift from Dr. D. Koinuma (Goto et al. (2007), J Biol Chem 282, 20603-20611, doi: 10.1074/jbc.M702100200). For Xenopus mRNA microinjection, Xenopus laevis BMP4-pCS2+, myc-tagged RSPO2^ΔC-myc-pCS2+, RSPO2^ΔFU-myc-pCS2+ and RSPO2^ΔTSP-myc-pCS2+ plasmids, DNALK3-pCS2+, membrane-RFP, EYFP-tagged human ALK3-pCS2+ were used for in vitro transcription. Human ZNRF3 and ZNRF3^ΔRING constructs were gifts from Dr. F. Cong (Novartis; Hao et al. (2012), Nature 485, 195-200, doi: 10.1038/nature11019), and ORFs were subcloned in flag-pCS2+ for in vitro transcription.
BRE luciferase assays were executed using 300,000 ml^−1 of HEPG2 cells in 24-well plates. PGL3-BRE-Luciferase (500 ng ml^−1) and pRL-TK-Renilla plasmids (50 ng ml^−1) were transfected using Lipofectamine 3000. […] Luciferase activity was measured with the Dual luciferase reporter assay system (Promega E1960). Firefly luminescence (BRE) was normalized to Renilla. […]

Six molecules from patent US20250346890A1, “LEUKEMIA TREATMENT” (Deutsches Krebsforschungszentrum, priority 2019, published 2025) can be followed below.

T1 sequence (P36894 24-532 Q233D): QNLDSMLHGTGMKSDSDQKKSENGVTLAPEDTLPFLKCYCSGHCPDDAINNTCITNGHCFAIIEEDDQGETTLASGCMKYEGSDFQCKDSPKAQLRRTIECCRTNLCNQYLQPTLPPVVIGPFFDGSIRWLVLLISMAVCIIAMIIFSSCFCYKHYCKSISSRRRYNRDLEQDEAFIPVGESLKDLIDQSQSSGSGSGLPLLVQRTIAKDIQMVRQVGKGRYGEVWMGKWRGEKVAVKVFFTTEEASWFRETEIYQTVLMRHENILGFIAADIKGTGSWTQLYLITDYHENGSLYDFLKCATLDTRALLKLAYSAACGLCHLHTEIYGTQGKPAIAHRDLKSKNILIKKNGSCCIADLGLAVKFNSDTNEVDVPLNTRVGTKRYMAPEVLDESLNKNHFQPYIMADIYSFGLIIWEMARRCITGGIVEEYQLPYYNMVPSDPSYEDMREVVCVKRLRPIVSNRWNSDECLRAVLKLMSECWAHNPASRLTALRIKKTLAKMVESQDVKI

With `c1ccc2c(-c3cnn4cc(-c5ccc(N6CCNCC6)cc5)cnc34)ccnc2c1` [LDN 193189], in series [1], the “Smad1-phosphorylation increased by RSPO2 knockdown” value is “reverted increased Smad1-phosphorylation”. Besides, the “monocyte-macrophage differentiation induced by siRSPO2” value in series [2] (THP-1 cells, siRSPO2 plus inhibitor) is recorded as “impaired monocyte-macrophage differentiation”.

Regarding `CN(C)c1cccc2c(S(=O)(=O)NCCCCCN)cccc12` [monodansylcadaverin, reference compound], the “effect on inhibition of BMP signaling by RSPO2” value in series [3] (BMP4+RSPO2) was “eliminated inhibition of BMP signaling by RSPO2”.

Regarding “gRNA: previously established guide RNA for Crispr-Cas9 rspo2 knockout, TGACTCCATAGTATCCAGGA (SEQ ID NO:11) (listed as DNA, chemistry not given here)”, the embryo phenotype result in series [4] is “mildly ventralized embryos”. For the same molecule, the “BMP target gene expression” value in series [4] (sizzled in situ hybridization) is “increased BMP target gene expression”.

In the case of “shRSPO2: Dox-inducible shRNA against RSPO2, SEQ ID NO:10, expressed in THP-1 clones (GACAATGGGTGTAGCCGATCTCGAGATCGGCTACACCCATTGTC)”, in series [5] (NSG mice injected with TetOn-shRSPO2 THP-1 cell line #1, Dox induction, still alive at reporting time), the “prolongation of disease-free survival” value is given as “at least 2.3 fold”. In series [5] (NSG mice injected with TetOn-shRSPO2 THP-1 cell line #2, Dox induction), the survival entry is listed as “survived almost twice as long”. In addition, in series [5] (NSG mice, TetOn-shRSPO2 THP-1 cells, Dox induction), the tumor burden result is recorded as “reduced tumor burden”. Besides, the “macrophage differentiation in bone marrow” value in series [5] (NSG mice, both TetOn-shRSPO2 cell lines, Dox induction) is “enhanced macrophage differentiation”. Further, in series [6], the THP-1 cell growth entry is “reduced THP-1 cell growth” and the colony formation entry is on record as “reduced”. In addition, the “BMP signaling and monocyte-macrophage differentiation” value in series [2] (THP-1 TetOn-shRSPO2 clones, Dox-administration) was “induced BMP signaling and robust monocyte-macrophage differentiation”.

B1: RSPO3: human R-spondin 3 protein (SEQ ID NO:2); conditioned medium or recombinant (Peprotech 120-44) (protein, listed as Homo sapiens)
chain: MHLRLISWLFIILNFMEYIGSQNASRGRRQRRMHPNVSQGCQGGCATCSDYNGCLSCKPRLFFALERIGMKQIGVCLSSCPSGYYGTRYPDINKCTKCKADCDTCFNKNFCTKCKSGFYLHLGKCLDNCPEGLEANNHTMECVSIVHCEVSEWNPWSPCTKKGKTCGFKRGTETRVREIIQHPSAKGNLCPPTNETRKCTVQRKKCQKGERGKKGRERKRKKPNKGESKEAIPDSKSLESSKEIPEQRENKQQQKKRKVQDKQKSVSVSTVH
Regarding B1, in series [3] (BMP4 stimulation, treatment with RSPO protein), the BMP4 signaling entry is given as “decreased BMP4 signaling”. For the same molecule, in series [7], the “BMP signaling induced by constitutively active ALK3” value was “specifically inhibited”.

B2: RSPO1: secreted R-spondin protein; conditioned medium or recombinant human RSPO1 (Peprotech 120-38) (protein, UniProt Q2MKA7 21-263, looked up)
R-spondin-1: SRGIKGKRQRRISAEGSQACAKGCELCSEVNGCLKCSPKLFILLERNDIRQVGVCLPSCPPGYFDARNPDMNKCIKCKIEHCEACFSHNFCTKCKEGLYLHKGRCYPACPEGSSAANGTMECSSPAQCEMSEWSPWGPCSKKQQLCGFRRGSEERTRRVLHAPVGDHAACSDTKETRRCTVRRVPCPEGQKRRKGGQGRRENANRNLARKESKEAGAGSRRRKGQQQQQQQGTVGPLTSAGPA
On to B2, for which, in series [7], the “BMP signaling induced by constitutively active ALK3” value was “had no effect”.
